How the values were obtained:
[1] = Dynamic vapor sorption (DVS) analysis; type: physicochemical; details: relative humidity increased from about 0% to about 90% RH
Method: In certain embodiments, Form A is characterized by dynamic vapor sorption analysis. […] In certain embodiments, Form A comprises less than 0.1% water as determined in a coulometric Karl Fischer (KF) titrator equipped with an oven sample processor set at 225° C.
In certain embodiments, Form B is characterized by dynamic vapor sorption analysis. […] In certain embodiments, Form B comprises less than 0.1% water as determined in a coulometric Karl Fischer (KF) titrator equipped with an oven sample processor set at 225° C.
In certain embodiments, Form C is characterized by dynamic vapor sorption analysis. […] In certain embodiments, Form C comprises less than 0.1% water as determined in a coulometric Karl Fischer (KF) titrator equipped with an oven sample processor set at 225° C.

HL-60 human AML cells = test: HL-60 IV AML xenograft model, survival study; type: in vivo, SCID mice; details: positive control; p<0.05 vs vehicle
Method: In this study, Compound 1 antitumor activity in the HL-60 IV AML xenograft model was studies. In this model, HL-60 human AML cells engraft in host BM and internal organs (eg, spleen, liver) and animals develop progressive peripheral leukocytosis. Female severe combined immunodeficiency (SCID) mice were inoculated with HL-60 cells by tail vein injection. To understand the effect of Compound 1 on the xenografted HL-60 cells, animals were dosed intraperitoneal (IP) with vehicle or Compound 1 (0.5, 1, 2.5, and 5 mg/kg) once daily (QD)×5 between Weeks 3 and 4 post-engraftment (AP6516, survival study) or animals were dosed IP twice daily (BID) with vehicle or Compound 1 for 5 or 10 consecutive days (5 mg/kg BID×5 or 2.5 mg/kg, BID×10) between Weeks 6 and 8 post-engraftment (Study AP6982, % human CD33+[hCD33+] cells in BM).
Tumor burden from the peripheral blood of HL-60-bearing animals was assessed by fluorescence-activated cell sorting (FACS) at Week 7 post-tumor cell inoculation. […] Mice from the vehicle control and Compound 1 treatment groups succumbed to disease burden starting on Day 54 for the vehicle control group and between Day 51 and Day 57 for the Compound 1 treatment groups. […] One mouse (1/8) from the 2.5 mg/kg Compound 1-treated group survived to study termination on Day 162.

[2] = type: physicochemical
Text: In certain embodiments, the compound for use in the methods is an anhydrous Form C of 2-(4-chlorophenyl)-N-((2-(2,6-dioxopiperidin-3-yl)-1-oxoisoindolin-5-yl)methyl)-2,2-difluoroacetamide.
In certain embodiments, Form C is obtained by slurrying 2-(4-chlorophenyl)-N-((2-(2,6-dioxopiperidin-3-yl)-1-oxoisoindolin-5-yl)methyl)-2,2-difluoroacetamide in certain solvent systems, for example, solvent systems comprising one or more of the following solvents: acetonitril/water, acetone, or ethanol/water for extended period of time.

| SMILES | water uptake (DVS) [1] | median survival (HL-60 human AML cells) [days] | thermodynamic stability among the crystal forms [2] |
| --- | --- | --- | --- |
| O=C1CCC(N2Cc3cc(CNC(=O)C(F)(F)c4ccc(Cl)cc4)ccc3C2=O)C(=O)N1 (centres unmarked) [Form B, 2-(4-chlorophenyl)-N-((2-(2,6-dioxopiperidin-3-yl)-1-oxoisoindolin-5-yl)methyl)-2,2-difluoroacetamide] | about 1.4 % w/w |  |  |
| Nc1nc(F)nc2c1ncn2[C@@H]1O[C@H](CO)[C@@H](O)[C@@H]1O [fludarabine, reference compound] |  | 76 |  |
| O=C1CCC(N2Cc3cc(CNC(=O)C(F)(F)c4ccc(Cl)cc4)ccc3C2=O)C(=O)N1 (centres unmarked) [Form C, 2-(4-chlorophenyl)-N-((2-(2,6-dioxopiperidin-3-yl)-1-oxoisoindolin-5-yl)methyl)-2,2-difluoroacetamide] | about 0.6 % w/w |  | most thermodynamically stable anhydrate |
| O=C1CCC(N2Cc3cc(CNC(=O)C(F)(F)c4ccc(Cl)cc4)ccc3C2=O)C(=O)N1 (centres unmarked) [Form A, 2-(4-chlorophenyl)-N-((2-(2,6-dioxopiperidin-3-yl)-1-oxoisoindolin-5-yl)methyl)-2,2-difluoroacetamide] | about 1.2 % w/w |  |  |

Reference: patent publication US11590117B2, “Treatment of a hematologic malignancy with 2-(4-chlorophenyl)-n-((2-(2,6-dioxopiperidin-3-yl)-1-oxoisoindolin-5-yl)methyl)-2,2-difluoroacetamide” (priority 2016, dated 2023)
